In ChEMBL document CHEMBL1128282 (J Med Chem, 1995):
Calls of active or inactive are those of the source. The rule behind the calls is not given here.

What was measured:
Xenopus laevis [1] = species on record: Xenopus laevis; experiment: Pigment aggregation response in Xenopus laevis Melanophores at 10e-5 M of concentration; No Agonist response; type: functional
Melatonin receptor [2] = biological target: T1, Melatonin receptor (Gallus gallus, UniProt P49288+P51050+P49285); experiment: Binding affinity in chicken brain membranes by using [2-125I]melatonin in a competition radioligand binding assay; type: cell membranes, Membrane
Xenopus laevis [3] = species on record: Xenopus laevis; experiment: Pigment aggregation response in Xenopus laevis Melanophores at 10e-6 M of concentration; Agonist; type: functional; conditions: filed as agonist
Xenopus laevis [4] = species on record: Xenopus laevis; experiment: Pigment aggregation response in Xenopus laevis Melanophores; Antagonist; type: functional; conditions: filed as antagonist
Xenopus laevis [5] = species on record: Xenopus laevis; experiment: Pigment aggregation response in Xenopus laevis Melanophores at 10e-5 M of concentration; Antagonist; type: functional; conditions: filed as antagonist
Xenopus laevis [6] = species on record: Xenopus laevis; experiment: Pigment aggregation response in Xenopus laevis Melanophores at 10e-5 M of concentration; No agonist response; type: functional
Xenopus laevis [7] = species on record: Xenopus laevis; experiment: Pigment aggregation response in Xenopus laevis Melanophores at 10e-5 M of concentration; Agonist; type: functional; conditions: filed as agonist
Xenopus laevis [8] = species on record: Xenopus laevis; experiment: Pigment aggregation response in Xenopus laevis Melanophores at 10e-8 M of concentration; Agonist response; type: functional; conditions: filed as agonist
Xenopus laevis [9] = species on record: Xenopus laevis; experiment: Pigment aggregation response in Xenopus laevis Melanophores at 10e-5 M of concentration; No Agonist/antagonist response; type: functional
Melatonin receptor [10] = biological target: T1, Melatonin receptor; experiment: Binding affinity in chicken brain membranes by using [2-125I]melatonin in a competition radioligand binding assay.; type: cell membranes, Membrane
Xenopus laevis [11] = species on record: Xenopus laevis; experiment: Pigment aggregation response in Xenopus laevis Melanophores at 10e-7 M of concentration; Agonist; type: functional; conditions: filed as agonist

Row | SMILES | Ki (Melatonin receptor [2]) [nM] | Response (Xenopus laevis [3]) | further results
1 | O=C(NCCc1c(-c2ccccc2)[nH]c2ccccc12)C(F)(F)C(F)(F)F | 6500 | – | Response (Xenopus laevis [1]): inactive
2 | CCCC(=O)NCCc1c(-c2ccccc2)[nH]c2ccc(OC)cc12 | 0.0558 | – | –
3 | O=C(CBr)NCCc1c(-c2ccccc2)[nH]c2ccccc12 | 55 | Agonist | –
4 | O=C(NCCc1c(-c2ccccc2)[nH]c2ccccc12)C1CCCC1 | 633 | – | Response (Xenopus laevis [4]): Antagonist
5 | Cn1c(-c2ccccc2)c(CCNC(=O)C2CCC2)c2ccccc21 | 726 | – | Response (Xenopus laevis [5]): Antagonist
6 | COc1ccc2[nH]c(-c3ccccc3)c(CCNC(=O)C34C[C@H]5C[C@@H](C3)C[C@@H](C4)C5)c2c1 | 1100 | Agonist | –
7 | CC(Br)C(=O)NCCc1c(-c2ccccc2)[nH]c2ccccc12 (stereo not given) | 1900 | – | Response (Xenopus laevis [6]): inactive
8 | COc1ccc2[nH]c(-c3ccccc3)c(CCNC(=O)CCc3ccccc3)c2c1 | 263 | Agonist | –
9 | CC(CNC(=O)C1CCC1)c1c(-c2ccccc2)n(C)c2ccccc12 (stereo not given) | 222 | – | Response (Xenopus laevis [5]): Antagonist
10 | CCn1c(-c2ccccc2)c(CCNC(C)=O)c2ccccc21 | 154 | – | Response (Xenopus laevis [7]): Agonist
11 | COCC(CNC(=O)C1CCC1)c1c(-c2ccccc2)n(C)c2ccccc12 (stereo not given) | 659 | – | Response (Xenopus laevis [5]): Antagonist
12 | COc1ccc2[nH]c(-c3ccccc3)c(CCNC(=O)C(F)(F)F)c2c1 | 0.019 | – | –
13 | COc1ccc2[nH]c(-c3ccccc3)c(CCNC(=O)C3CC3)c2c1 | 0.3047 | – | –
14 | COc1ccc2[nH]c(-c3ccccc3)c(CCNC(=O)C3CCCCC3)c2c1 | 216 | Agonist | –
15 | COc1ccc2[nH]cc(CCNC(C)=O)c2c1 | – | – | Response (Xenopus laevis [8]): Agonist
16 | CCCC(=O)NCCc1c(-c2ccccc2)[nH]c2ccccc12 | 112 | Agonist | –

Row | SMILES | Ki (Melatonin receptor [2]) [nM] | Response (Xenopus laevis [3]) | further results
17 | O=C(NCCc1c(-c2ccccc2)[nH]c2ccccc12)C1CCCCC1 | 1550 | – | Response (Xenopus laevis [4]): Antagonist
18 | O=C(CCc1ccccc1)NCCc1c(-c2ccccc2)[nH]c2ccccc12 | 7000 | – | Response (Xenopus laevis [9]): inactive
19 | O=C(NCCc1c(-c2ccccc2)[nH]c2ccccc12)C(F)(F)F | 148 | Agonist | –
20 | COc1ccc2[nH]c(-c3ccccc3)c(CCNC(=O)C3CCCC3)c2c1 | 32.8 | Agonist | –
21 | COCC(CNC(C)=O)c1c(-c2ccccc2)n(C)c2ccccc12 (stereo not given) | – | – | Ki (Melatonin receptor [10]): 350 nM; Response (Xenopus laevis [5]): Antagonist
22 | O=C(NCCc1c(-c2ccccc2)[nH]c2ccccc12)C1CC1 | 213 | – | Response (Xenopus laevis [4]): Antagonist
23 | O=C(NCCc1c(-c2ccccc2)[nH]c2ccccc12)C12C[C@H]3C[C@@H](C1)C[C@@H](C2)C3 | 1100 | – | Response (Xenopus laevis [9]): inactive
24 | [N-]=[N+]=NCC(=O)NCCc1c(-c2ccccc2)[nH]c2ccccc12 | 410 | Agonist | –
25 | CC(=O)NCCc1c(-c2ccccc2)n(C)c2ccccc12 | 63 | Agonist | –
26 | COc1ccc2[nH]c(-c3ccccc3)c(CCNC(=O)C3CCC3)c2c1 | 2.7 | Agonist | –
27 | CCC(=O)NCCc1c(-c2ccccc2)[nH]c2ccccc12 | 70 | Agonist | –
28 | O=C(NCCc1c(-c2ccccc2)[nH]c2ccccc12)C1CCC1 | 565 | – | Response (Xenopus laevis [4]): Antagonist
29 | CCC(=O)NCCc1c(-c2ccccc2)[nH]c2ccc(OC)cc12 | 0.0466 | – | Response (Xenopus laevis [8]): Agonist
30 | COc1ccc2[nH]c(-c3ccccc3)c(CCNC(C)=O)c2c1 | 0.0596 | – | Response (Xenopus laevis [8]): Agonist
31 | CC(=O)NCC(C)c1c(-c2ccccc2)n(C)c2ccccc12 (stereo not given) | 5.9 | – | Response (Xenopus laevis [11]): Agonist
32 | CC(=O)NCCc1c(-c2ccccc2)[nH]c2ccccc12 | 100 | Agonist | –
